The values that follow come from patent publication US20050267071A1, “Inhibitors of coronavirus protease and methods of use thereof” (Fulcrum Pharmaceuticals, Inc., priority 2003, published 2005).

The target of assay [1] is T1, SARS-associated coronavirus protease 3CL^pro (Severe acute respiratory syndrome coronavirus, UniProt P0C6U8). Description: biochemical.
The target in assay [2] is T1, SARS-associated coronavirus protease 3CL^pro. Type of assay: binding.

Molecules are shown by their SMILES.

As to `O=C(Oc1ccccc1F)c1cc(B(O)O)cc([N+](=O)[O-])c1` [FL-081, 3-(2-Fluorophenoxycarbonyl)-5-nitrophenylboronic acid], affinity in assay [1] was put at a Ki of 179 ± 70 µM.

Regarding `O=C(Oc1ccccc1)c1cc(B(O)O)cc([N+](=O)[O-])c1` [FL-092, 3-Phenoxycarbonyl-5-nitrophenylboronic acid], the Ki (as a rule, a dissociation constant, usually derived from enzyme kinetics or from competition with a known ligand) in assay [1] turned out to be 15.5 ± 6.5 µM. This Ki lies about 12-fold lower than the previous one.

For `O=C(Oc1c(Cl)cc(Cl)cc1Cl)c1cc(B(O)O)cc([N+](=O)[O-])c1` [FL-139, 3-(2,4,6-Trichlorophenoxycarbonyl)-5-nitro-phenylboronic acid], the Ki in assay [1] came to 73.3 ± 38 µM. This Ki is about 4.7-fold higher than that of the compound before.

Turning to `O=C(NCc1ccccc1)c1cccc(B(O)O)c1` [FL-1010, 3-(Benzylcarbamoyl)phenylboronic acid], the affinity in assay [1], expressed as Ki, was 84 ± 45 µM.

On to `O=C(Oc1ccc(OC(=O)c2cc(B(O)O)cc([N+](=O)[O-])c2)cc1)c1cc(B(O)O)cc([N+](=O)[O-])c1` [FL-078, 3-Borono-5-nitrobenzoic acid 1,4-phenylene ester], for which the “ΔH (Binding Enthalpy of Selected Compounds to 3CL^pro)” value in assay [2] is -4.9 kcal/mol. The same compound showed a Ki in assay [1] of 6.7 ± 0.9 µM.

Compound `O=C(Oc1c(F)cccc1F)c1cc(B(O)O)cc([N+](=O)[O-])c1` [FL-082, 3-(2,6-Difluorophenoxycarbonyl)-5-nitrophenylboronic acid] returned a Ki in assay [1] of 158 ± 109 µM.

In assay [1], `O=C(OCc1c(Cl)cccc1Cl)c1cc(B(O)O)cc([N+](=O)[O-])c1` [FL-086] showed a Ki of more than 1000 µM.

For `O=C(Oc1c(Cl)cccc1Cl)c1cc(B(O)O)cc([N+](=O)[O-])c1` [FL-080, 3-(2,6-Dichlorophenoxycarbonyl)-5-nitrophenylboronic acid], the inhibitory constant (Ki) in assay [1] turned out to be 62 ± 6 µM.

`O=C(O)c1cc(NC(=O)c2ccccc2F)cc(B(O)O)c1` [FL-083, 3-(2-Fluorobenzamido)-5-carboxylphenylboronic acid] came in with a Ki in assay [1] of 104 ± 38 µM.

Consider `O=C(OCc1cccc(B(O)O)c1)c1cc(B(O)O)cc([N+](=O)[O-])c1` [FL-101, 3-(3-Boronobenzyloxycarbonyl)-5-nitrophenylboronic acid], for which, in assay [1], the Ki was 21.7 ± 3.27 µM.

For the compound `O=C(Nc1cc(B(O)O)cc([N+](=O)[O-])c1)c1c(Cl)cccc1Cl` [FL-108, 3-(2,6-Dichlorobenzamido)-5-nitrophenylboronic acid], the Ki in assay [1] amounted to 15 ± 7 µM.

Turning to `O=C(Oc1cc(=O)oc2ccccc12)c1cc(B(O)O)cc([N+](=O)[O-])c1` [FL-133, 3-(4-Coumarinoxycarbonyl)-5-nitrophenylboronic acid], in assay [1], the Ki was more than 1000 µM.

`O=C(Oc1c(Cl)cc(Cl)cc1[N+](=O)[O-])c1cc(B(O)O)cc([N+](=O)[O-])c1` [FL-107, 3-(2,4-Dichloro-6-nitro-phenoxycarbonyl)-5-nitro-phenylboronic acid] came in with a Ki in assay [1] of 6.9 ± 0.3 µM.

Take `O=C(OCc1cccc2ccccc12)c1cc(B(O)O)cc([N+](=O)[O-])c1` [FL-148, 3-(1-Naphthalenemethoxycarbonyl)-5-nitrophenylboronic acid]: affinity in assay [1] was put at a Ki of 21.5 ± 8.7 µM.

As for `O=C(OC1c2ccccc2CC1Br)c1cc(B(O)O)cc([N+](=O)[O-])c1` (stereo not shown) [FL-090, 3-(2-Bromo-1-indanoxycarbonyl)-5-nitrophenylboronic acid], the Ki in assay [1] is more than 1000 µM.

As to `O=C(OC(C(=O)c1ccccc1)c1ccccc1)c1cc(B(O)O)cc([N+](=O)[O-])c1` (stereo not shown) [FL-097, 3-(1-Benzoyl-1-Phenylmethoxycarbonyl)-5-nitrophenylboronic acid], the Ki in assay [1] turned out to be 153 ± 58 µM.

`O=C(Oc1cccc(B(O)O)c1)c1cc(B(O)O)cc([N+](=O)[O-])c1` [FL-100, 3-(3-Boronophenoxycarbonyl)-5-nitrophenylboronic acid]: affinity in assay [1] was put at a Ki of 190 ± 100 µM.

Take `O=C(OCc1cccc(Cl)c1)c1cc(B(O)O)cc([N+](=O)[O-])c1` [FL-095, 3-(3-Chlorobenzyloxycarbonyl)-5-nitrophenylboronic acid]: in assay [1], the Ki is 91.8 ± 8.8 µM.

Consider `O=[N+]([O-])c1cc(NS(=O)(=O)c2ccccc2)cc(B(O)O)c1` [FL-114, 3-benzenesulfonamido-5-nitrophenylboronic acid], for which, in assay [1], affinity was put at a Ki of 49.8 ± 4.4 µM.

In the case of `O=C(Oc1cccc(B(O)O)c1)c1c(Cl)cccc1Cl` [FL-099, 3-(2,6-dichlorophenylcarbonyloxy)phenyl boronic acid], in assay [1], the Ki is more than 1000 µM.

In assay [1], `O=C(Nc1cc(B(O)O)ccc1Cl)c1c(Cl)cccc1Cl` [FL-109, 3-(2,6-Dichlorobenzamido)-4-chlorophenylboronic acid] showed a Ki of 61.5 ± 19.7 µM.

The compound `O=C(Oc1ccc(F)cc1)c1cc(B(O)O)cc([N+](=O)[O-])c1` [FL-085, 3-(4-Fluorophenoxycarbonyl)-5-nitrophenylboronic acid] yielded an inhibitory constant (Ki) in assay [1] of 95 ± 30 µM.

With `O=C(Oc1ccc2ccccc2c1)c1cc(B(O)O)cc([N+](=O)[O-])c1` [FL-151, 3-(2-Naphthoxycarbonyl)-5-nitrophenylboronic acid], the inhibition constant (Ki) in assay [1] came to 16.6 ± 6 µM.

Compound `O=C(Oc1ccc(OC(=O)c2cc(B(O)O)cc([N+](=O)[O-])c2)c2ccccc12)c1cc(B(O)O)cc([N+](=O)[O-])c1` [FL-167, 3-Borono-5-nitrobenzoic acid, 1,4-dihydroxynaphthalene ester] yielded a Ki in assay [1] of 10.2 ± 2.2 µM.

Turning to `O=C(Oc1ccc(OC(=O)c2cc(B(O)O)cc([N+](=O)[O-])c2)c(Cl)c1)c1cc(B(O)O)cc([N+](=O)[O-])c1` [FL-079, 3-Borono-5-nitrobenzoic acid 2-chloro-1,4-phenylene ester], the “ΔH (Binding Enthalpy of Selected Compounds to 3CL^pro)” value in assay [2] was -1.7 kcal/mol. Further, in assay [1], the Ki amounted to 23.7 ± 3 µM.

`Cc1ccc(B(O)O)cc1NC(=O)c1c(Cl)cccc1Cl` [FL-110, 3-(2,6-Dichlorobenzamido)-4-methylphenylboronic acid] gave a Ki in assay [1] of 37 ± 9.7 µM.

As for `O=C(Oc1cccnc1Cl)c1cc(B(O)O)cc([N+](=O)[O-])c1` [FL-089, 3-(2-Chloro-3-pyridyloxycarbonyl)-5-nitrophenylboronic acid], the Ki in assay [1] stood at 241 ± 85 µM. This Ki lies about 6.5-fold higher than the previous one.

With `O=C(Oc1ccccc1Br)c1cc(B(O)O)cc([N+](=O)[O-])c1` [FL-096, 3-(2-Bromophenoxycarbonyl)-5-nitro-phenylboronic acid], in assay [1], affinity was put at a Ki of 137 ± 61 µM.

In assay [1], `O=C(O)c1cc(O)cc(B(O)O)c1` [FL-172, (3-carboxy-5-hydroxyphenyl)boronic acid] displayed a Ki of 3.5 ± 3.9 µM. Compared with the last compound, the Ki is about 39-fold lower.

Regarding `O=C(Nc1cc(B(O)O)cc([N+](=O)[O-])c1)c1ccccc1F` [FL-084, 3-(2-Fluorobenzamido)-5-nitrophenylboronic acid], the Ki in assay [1] was more than 1000 µM.

`O=C(OC(c1ccccc1)c1ccccc1)c1cc(B(O)O)cc([N+](=O)[O-])c1` [FL-149, 3-(1,1-Diphenylmethoxycarbonyl)-5-nitrophenylboronic acid]: the Ki in assay [1] worked out at 313 ± 170 µM.

`O=C(Oc1c(Cl)cccc1[N+](=O)[O-])c1ccc(B(O)O)cc1F` [FL-104, 4-(2-Chloro-6-nitrophenoxycarbonyl)-3-fluorophenylboronic acid] displayed a Ki in assay [1] of 18 ± 1 µM. This Ki lies about 17-fold lower than the previous one.

In assay [1], `O=C(Oc1cccc(B(O)O)c1)c1ccc(C(=O)Oc2cccc(B(O)O)c2)cc1` [FL-156, 1,4-Benzenedicarboxylic acid, di 3-boronophenyl ester] yielded a Ki of 33 ± 9.4 µM.

`O=C(OCc1ccccc1COC(=O)c1cc(B(O)O)cc([N+](=O)[O-])c1)c1cc(B(O)O)cc([N+](=O)[O-])c1` [FL-136, 3-Borono-5-nitrobenzoic acid 1,2-benzenedimethanol ester]: the “ΔH (Binding Enthalpy of Selected Compounds to 3CL^pro)” value in assay [2] is -9.2 kcal/mol. In assay [1], this compound registered a Ki of 8 ± 1.7 µM.

Turning to `O=C(OCc1ccccc1)c1cc(B(O)O)cc([N+](=O)[O-])c1` [FL-1201, 3-Benzyloxycarbonyl-5-nitrophenylboronic acid], the Ki in assay [1] stood at 35.8 ± 11.5 µM.

`O=C(OCc1cccc([N+](=O)[O-])c1)c1cc(B(O)O)cc([N+](=O)[O-])c1` [FL-094, 3-(3-Nitrobenzyloxycarbonyl)-5-nitrophenylboronic acid]: the affinity in assay [1], expressed as Ki, was 39 ± 5 µM.

The compound `CC(C)(C)c1cc(OC(=O)c2cc(B(O)O)cc([N+](=O)[O-])c2)ccc1OC(=O)c1cc(B(O)O)cc([N+](=O)[O-])c1` [FL-169, 3-Borono-5-nitrobenzoic acid, 2-tert-butyl-1,4-phenylene ester] had a Ki in assay [1] of 32.7 ± 2.5 µM.

On to `O=C(OCCN(CCOC(=O)c1cc(B(O)O)cc([N+](=O)[O-])c1)CCOC(=O)c1cc(B(O)O)cc([N+](=O)[O-])c1)c1cc(B(O)O)cc([N+](=O)[O-])c1` [FL-165, Tris(3-borono-5-nitrobenzoic acid), triethanolamine ester], for which, in assay [1], the Ki stood at 50.6 ± 21.5 µM.

For the compound `Nc1cc(B(O)O)cc(C(=O)O)c1` [FL-088, 3-amino-5-carboxylphenylboronic acid], the affinity in assay [1], expressed as Ki, was 63 ± 14 µM.

`O=C(Oc1cc(OC(=O)c2cc(B(O)O)cc([N+](=O)[O-])c2)cc(OC(=O)c2cc(B(O)O)cc([N+](=O)[O-])c2)c1)c1cc(B(O)O)cc([N+](=O)[O-])c1` [FL-164, Tris-(3-borono-5-nitrobenzoic acid), 1,3,5-trihydroxybenzene ester]: the affinity in assay [1], expressed as Ki, was 79.6 ± 14.1 µM.

The compound `O=C(Oc1ccncc1)c1cc(B(O)O)cc([N+](=O)[O-])c1` [FL-087, 3-(4-pyridyloxycarbonyl)-5-nitro-phenylboronic acid] yielded a Ki in assay [1] of 66 ± 2 µM.

`O=C(Oc1c(Cl)c(Cl)c(OC(=O)c2cc(B(O)O)cc([N+](=O)[O-])c2)c(Cl)c1Cl)c1cc(B(O)O)cc([N+](=O)[O-])c1` [FL-141, 3-Borono-5-nitrobenzoic acid 2,3,5,6-tetrachloro-1,4-phenylene ester] returned a Ki in assay [1] of 39.3 ± 11.7 µM.

As for `O=C(Oc1cccc(OC(=O)c2cc(B(O)O)cc([N+](=O)[O-])c2)c1)c1cc(B(O)O)cc([N+](=O)[O-])c1` [FL-106, 3-Borono-5-nitrobenzoic acid 1,3-phenylene ester], the “ΔH (Binding Enthalpy of Selected Compounds to 3CL^pro)” value in assay [2] is -5.3 kcal/mol. Moreover, the Ki in assay [1] came out at 8.5 ± 0.5 µM.

Take `O=C(Oc1ccc(OC(=O)c2ccc(B(O)O)cc2F)c(Cl)c1)c1ccc(B(O)O)cc1F` [FL-103, 4-Borono-2-fluorobenzoic acid 2-chloro-1,4-phenylene ester]: the Ki in assay [1] amounted to 39.1 ± 2.1 µM.

Compound `CCOC(=O)[C@H](Cc1ccccc1)NC(=O)c1cc(B(O)O)cc([N+](=O)[O-])c1` [FL-170, 3-borono-5-nitrobenzoyl-L-phenylalanine ethyl ester] gave a Ki in assay [1] of 10.6 ± 7.5 µM.
